Test results as given in ChEMBL document CHEMBL1201862, “PubChem BioAssay data set” (2004).
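48-hour exposure; five concentrations; linearly interpolated endpoints. GI50: concentration for 50% inhibition of growth.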 The source made the active and inactive calls. No stated cut-off is given here; in the data, active = GI50 up to about 1.1 µM and inactive = higher.

Assays:
Assay in all cases: NCI-60 cell line screen, 48 h
[1] = tested on: MDA-MB-435
[2] = tested on: SF-268
[3] = tested on: SK-OV-3
[4] = tested on: NCI-H23
[5] = tested on: K562
[6] = tested on: HCC 2998
[7] = tested on: SNB-19
[8] = tested on: SK-MEL-5
[9] = tested on: HOP-62
[10] = tested on: SN12C
[11] = tested on: HCT-116
[12] = tested on: ACHN
[13] = tested on: SK-MEL-28
[14] = tested on: BT-549
[15] = tested on: T47D
[16] = tested on: M14
[17] = tested on: EKVX
[18] = tested on: HT-29
[19] = tested on: SF-539
[20] = tested on: HL-60
[21] = tested on: CAKI-1
[22] = tested on: MOLT-4
[23] = tested on: UACC-257
[24] = tested on: OVCAR-4
[25] = tested on: HCT-15
[26] = tested on: MDA-N
[27] = tested on: UACC-62
[28] = tested on: IGROV-1
[29] = tested on: LOX IMVI
[30] = tested on: U-251
[31] = tested on: Hs-578T
[32] = tested on: 786-0
[33] = tested on: NCI-H522
[34] = tested on: MDA-MB-231
[35] = tested on: NCI-H460
[36] = tested on: COLO 205
[37] = tested on: SK-MEL-2
[38] = tested on: NCI/ADR-RES
[39] = tested on: OVCAR-5
[40] = tested on: RPMI-8226
[41] = tested on: OVCAR-8
[42] = tested on: MCF7
[43] = tested on: SF-295
[44] = tested on: NCI-H226
[45] = tested on: SNB-75
[46] = tested on: CCRF-CEM
[47] = tested on: OVCAR-3
[48] = tested on: SW-620
[49] = tested on: DU-145
[50] = tested on: A498
[51] = tested on: A549
[52] = tested on: KM12
[53] = tested on: PC-3
[54] = tested on: TK-10
[55] = tested on: HOP-92
[56] = tested on: UO-31

## C[C@H]1C(=O)O[C@@H]2CCN3CC=C(COC(=O)[C@](C)(O)[C@@]1(C)O)[C@H]23
[1]
  GI50: > 100 µM (inactive)
[2]
  GI50: > 100 µM (inactive)
[3]
  GI50: > 100 µM (inactive)
[4]
  GI50: > 100 µM (inactive)
[5]
  GI50: > 100 µM (inactive)
[6]
  GI50: > 100 µM (inactive)
[7]
  GI50: > 100 µM (inactive)
[8]
  GI50: > 100 µM (inactive)
[9]
  GI50: > 100 µM (inactive)
[10]
  GI50: > 100 µM (inactive)
[11]
  GI50: > 100 µM (inactive)
[12]
  GI50: > 100 µM (inactive)
[13]
  GI50: > 100 µM (inactive)
[14]
  GI50: > 100 µM (inactive)
[15]
  GI50: > 100 µM (inactive)
[16]
  GI50: > 100 µM (inactive)
[17]
  GI50: > 100 µM (inactive)
[18]
  GI50: > 100 µM (inactive)
[19]
  GI50: > 100 µM (inactive)
[20]
  GI50: > 100 µM (inactive)
[21]
  GI50: > 100 µM (inactive)
[22]
  GI50: > 100 µM (inactive)
[23]
  GI50: > 100 µM (inactive)
[24]
  GI50: > 100 µM (inactive)
[25]
  GI50: > 100 µM
[26]
  GI50: > 100 µM (inactive)
[27]
  GI50: > 100 µM (inactive)
[28]
  GI50: > 100 µM (inactive)
[29]
  GI50: > 100 µM (inactive)
[30]
  GI50: > 100 µM (inactive)
[31]
  GI50: > 100 µM (inactive)
[32]
  GI50: > 100 µM (inactive)
[33]
  GI50: > 100 µM (inactive)
[34]
  GI50: > 100 µM (inactive)
[35]
  GI50: > 10 µM (inactive)
[36]
  GI50: > 100 µM (inactive)
[37]
  GI50: > 100 µM (inactive)
[38]
  GI50: > 100 µM (inactive)
[39]
  GI50: > 100 µM (inactive)
[40]
  GI50: > 100 µM (inactive)
[41]
  GI50: > 100 µM (inactive)
[42]
  GI50: > 100 µM (inactive)
[43]
  GI50: > 100 µM (inactive)
[44]
  GI50: > 100 µM (inactive)
[45]
  GI50: > 100 µM (inactive)
[46]
  GI50: > 100 µM (inactive)
[47]
  GI50: > 100 µM (inactive)
[48]
  GI50: > 100 µM (inactive)
[49]
  GI50: > 100 µM (inactive)
[50]
  GI50: > 100 µM (inactive)
[51]
  GI50: > 100 µM (inactive)
[52]
  GI50: > 100 µM (inactive)
[53]
  GI50: > 100 µM (inactive)
[54]
  GI50: > 100 µM (inactive)
[55]
  GI50: > 100 µM (inactive)
[56]
  GI50: > 100 µM (inactive)
